For one data set, the system named is DBA mice. As to conditions: cited from earlier work; for seizure-induced respiratory failure and death in DBA mice: dose-dependent manner.
For data set [1] the following is noted: oral administration; cited from earlier work.
Data set [2] has as its system DBA/1 mice (audiogenic seizures, seizure-induced respiratory arrest). The data set is described as follows: Dose- and time-dependent effects of FFA on audiogenic seizures (AGSz) and S-IRA in DBA/1 mice. The data set is classed as in vivo, mouse. From the text:
These studies involved age matched (<80 days) male DBA/1 mice obtained from ENVIGO. […] Starting at postnatal day 23-25, the mice were primed and tested for consistent susceptibility to AGSz and S-IRA by presenting an intense acoustic stimulus, as described previously.
The typical seizure semiology in the DBA/1 mice begins with a wild running phase, followed by clonic-tonic seizures and then tonic hind-limb extension that immediately leads to S-IRA during post-ictal behavioral depression (PID). The onset of S-IRA was visually determined by the occurrence of respiratory failure following loss of the righting reflex, relaxation of the pinnae, and then a generalized loss of muscle tone. These behaviors are reliable indicators of imminent sudden death in DBA mice. […] The mice were placed in a supine position, and a polyethylene tube (4.4 mm external diameter) connected to the outflow of a rodent respirator (Harvard Apparatus 680), pumping one cc of room air at 200 strokes/min, was the placed over the nostrils, which produced observable displacement of the chest. […] The mice were monitored until they regained the righting reflex and then returned to their home cage. Video recordings of seizure behaviors and recovery were made for off-line evaluation and analysis, including the duration of PID, as indicated by time from muscle tone loss to return of the righting reflex.
The videos of seizure behaviors were analyzed visually, and the incidence (frequency) of AGSz, seizure severity, and incidence (frequency) of S-IRA following drug treatment were compared statistically to vehicle controls using the Chi-square, Mann-Whitney U or paired samples t-test with SPSS software. The ED50 was calculated using SigmaPlot 13 and Microsoft® Excel. The experimental protocols used in these studies were approved by the Laboratory Animal Care and Use Committee of Southern Illinois University School of Medicine, which are in accordance with National Institutes of Health guidelines for the care and use of laboratory animals. Measures to minimize animal usage as well as pain and discomfort were included in these procedures.
The incidence of S-IRA and tonic seizures were analyzed Chi-square test with a significance level set at p<0.05.

The target of a further data set is T1, 5-HT2C receptor (Homo sapiens, UniProt P28335).
T1 sequence (P28335 33-458): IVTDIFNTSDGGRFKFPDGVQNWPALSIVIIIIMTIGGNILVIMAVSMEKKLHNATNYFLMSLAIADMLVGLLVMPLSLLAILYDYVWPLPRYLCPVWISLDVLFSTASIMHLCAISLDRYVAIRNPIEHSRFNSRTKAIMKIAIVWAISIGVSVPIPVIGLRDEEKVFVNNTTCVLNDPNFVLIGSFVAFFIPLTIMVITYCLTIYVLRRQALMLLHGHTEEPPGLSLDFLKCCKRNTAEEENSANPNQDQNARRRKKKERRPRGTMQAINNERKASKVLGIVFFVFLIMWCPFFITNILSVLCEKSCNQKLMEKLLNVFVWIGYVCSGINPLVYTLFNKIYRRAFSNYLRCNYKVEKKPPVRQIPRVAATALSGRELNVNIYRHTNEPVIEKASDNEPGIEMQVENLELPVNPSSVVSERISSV
Particulars: cited from earlier work.

The target in the next data set is 5-HT2B receptor (Homo sapiens, UniProt P41595). As to conditions: cited from earlier work.
Sequence of 5-HT2B receptor (P41595 whole entry): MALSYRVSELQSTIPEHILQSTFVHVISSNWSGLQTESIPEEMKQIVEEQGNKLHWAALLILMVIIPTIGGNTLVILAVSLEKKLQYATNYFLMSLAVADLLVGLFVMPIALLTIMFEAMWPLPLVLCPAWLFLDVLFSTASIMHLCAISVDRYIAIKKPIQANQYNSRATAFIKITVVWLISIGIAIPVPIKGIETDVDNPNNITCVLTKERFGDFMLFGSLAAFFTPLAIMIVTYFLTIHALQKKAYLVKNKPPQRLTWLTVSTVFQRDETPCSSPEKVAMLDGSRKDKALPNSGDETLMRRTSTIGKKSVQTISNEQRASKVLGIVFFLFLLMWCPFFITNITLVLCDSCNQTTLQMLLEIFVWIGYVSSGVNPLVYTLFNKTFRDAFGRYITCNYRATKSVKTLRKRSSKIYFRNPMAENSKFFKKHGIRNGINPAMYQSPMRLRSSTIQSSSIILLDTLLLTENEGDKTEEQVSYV
Data set [3] concerns DBA/1 mice (audiogenic seizures, seizure-induced respiratory arrest). The data set is described as follows: Reversal of FFA's anticonvulsant and S-IRA blocking effects by selective 5-HT receptor antagonists in DBA/1 mice. The data set is classed as in vivo, mouse. Particulars: for reversal of S-IRA blocking effect of FFA (reduction in S-IRA incidence) / reversal of anticonvulsant effect of FFA (seizure severity, incidence of tonic seizures): antagonist dose not stated; for reversal of FFA's S-IRA blocking effect: 30 min before AGSz.

Data set [4] concerns patients with Dravet syndrome. Particulars: add-on (adjunctive) agent; cited from earlier work.
For data set [5] the following is noted: in vivo; cited from earlier work.

The structures appear in SMILES notation. Entries after “also recorded” stand apart in the source; their conditions may differ. Some results are limits rather than exact numbers.

On to `CNCCC(Oc1ccc(C(F)(F)F)cc1)c1ccccc1` (stereo not drawn) [fluoxetine], for which the “S-IRA in DBA/1 mice” value in the data set on DBA mice (acting via 5-HT3 receptors) was “can prevent”. Besides, the “seizure-induced respiratory failure and death in DBA mice” value in the data set on DBA mice is “prevent”.
In the case of `CC[C@@H](c1cccc(O)c1)[C@@H](C)CN(C)C` [Tapentadol], in data set [1], the duration of analgesia is 4 to 6 h and the onset of analgesia is no more than 32 min.
For the molecule `CCNC(C)Cc1cccc(C(F)(F)F)c1` (racemic) [FFA, 3-trifluoromethyl-N-ethylamphetamine], the “incidence of S-IRA” value in data set [2] (FFA 5 mg/kg i.p.) is reported as “not affected”; in data set [2] (FFA 10 mg/kg i.p., starting at 8 h, vs saline treated controls), “significant reduction”; in data set [2] (FFA 15 mg/kg (n=73) vs saline (n=38), FIGS. 1C-1D) it was “reduction”; in data set [2] (FFA 15 mg/kg i.p., starting at 8 h, vs saline treated controls), “significant reduction”; in data set [2] (FFA 20 mg/kg i.p., starting at 8 h, vs saline treated controls) it was “significant reduction”. Also, in data set [2] (FFA 20 mg/kg), the “return of tonic AGSz and S-IRA susceptibility (time after FFA)” value was “approximately 48 h”. For the same molecule, the “effect on S-IRA” value in data set [2] (FFA 10-20 mg/kg) is reported as “blocking effect”. In addition, in data set [2] (FFA 10-20 mg/kg, 8 h time point (FIG. 1B)), the “mice with significant reduction in the incidence of S-IRA” value turned out to be 100%. Besides, in data set [2] (FFA i.p., dose not stated), the “incidence of tonic seizures” value is given as “significantly reduced”. Besides, in data set [2] (dose- and time-dependent), the “seizure severity / AGSz susceptibility” value was “significantly reduced seizure severity or blocked AGSz susceptibility”. Besides, the “affinity for 5-HT2C receptor” value at 5-HT2C receptor was “high affinity”. In addition, at 5-HT2B receptor, the “affinity for 5-HT2B receptor” value is “high affinity”. Also, the “action at the 5-HT4 receptor, concluded from reversal by GR125487” value in data set [3] (conclusion from antagonist study in DBA/1 mice) is given as “agonist”. Besides, the “seizure activity (frequency and/or severity)” value in data set [4] is listed as “significantly reduced”.
Consider `Cc1nccn1CC1CCc2c(c3ccccc3n2C)C1=O` (stereo not drawn) [Ondansetron], for which, in data set [3] (Ondansetron 1-3 mg/kg), the “reversal of FFA's effect (AGSz severity / S-IRA)” value is “not effective at any dose tested”. In addition, the “reversal of FFA's effect (AGSz severity / S-IRA)” value in data set [3] (Ondansetron 2-3 mg/kg) is recorded as “not effective at any dose tested”. For the same molecule, in data set [3], the “reversal of S-IRA blocking effect of FFA (reduction in S-IRA incidence)” value is “did not reverse” and the “reversal of anticonvulsant effect of FFA (seizure severity, incidence of tonic seizures)” value (from here on “reversal of anticonvulsant effect of FFA”) is listed as “did not reverse”.
For `COc1ccccc1N1CCN(CCN(C(=O)C2CCCCC2)c2ccccn2)CC1` [WAY100635], in data set [3] (WAY100635 0.1-15 mg/kg), the “reversal of FFA's effect (AGSz severity / S-IRA)” value was “not effective at any dose tested”.
`CN[C@H]1CC[C@@H](c2ccc(Cl)c(Cl)c2)c2ccccc21` [sertraline]: the “seizure-induced respiratory failure and death in DBA mice” value in the data set with DBA mice is recorded as “prevent”.
For the molecule `CCC1(c2ccccc2)C(=O)NC(=O)NC1=O` [Phenobarbital], the half-life in data set [5] was 92 h.
As for `COc1ccc(C(CN(C)C)C2(O)CCCCC2)cc1` (stereo not drawn) [venlafaxine], the “seizure-induced respiratory failure and death in DBA mice” value in the data set with DBA mice is “prevent”.
With `CNCC[C@@H](Oc1ccccc1C)c1ccccc1` [atomoxetine], the “seizure-induced respiratory failure and death in DBA mice” value with DBA mice is “prevent”.
For the molecule `CC1CCN(CC[C@H]2CCCN2S(=O)(=O)c2cccc(O)c2)CC1` [SB269970], in data set [3] (SB269970 30 mg/kg and 40 mg/kg), the “reversal of FFA's anticonvulsant effect against the severity of AGSz” value (“reversal of FFA's anticonvulsant effect” for short) is recorded as “able to reverse; also recorded: block” and the “reversal of FFA's S-IRA blocking effect” value is reported as “not its S-IRA blocking effect”. Besides, in data set [3], the “reversal of anticonvulsant effect of FFA” value is “reversed”.
As for `COCCCC/C(=N\OCCN)c1ccc(C(F)(F)F)cc1` [fluvoxamine], the “seizure-induced respiratory failure and death in DBA mice” value in the data set with DBA mice is recorded as “prevent”.
For the molecule `Cc1nc2sccn2c(=O)c1CCN1CCC(=C(c2ccc(F)cc2)c2ccc(F)cc2)CC1` [Ritanserin], the “reversal of FFA's anticonvulsant effect” value in data set [3] (Ritanserin 20 mg/kg) is “able to reverse; also recorded: block”. In addition, in data set [3] (Ritanserin 10-20 mg/kg), the “reversal of FFA's anticonvulsant effect” value is reported as “able to reverse” and the “reversal of FFA's S-IRA blocking effect” value is “not its S-IRA blocking effect”. In data set [3], the “reversal of S-IRA blocking effect of FFA (reduction in S-IRA incidence)” value was “reversed” and the “reversal of anticonvulsant effect of FFA” value is listed as “reversed”.

As usually defined, the half-life is the time needed for the level to fall by half in the phase considered.

Values taken from patent publication US10952976B2 (priority 2018, dated 2021).
